Where two headings read alike, the source gives them in different places.
Experiments:
[1] = biological target: SARS-CoV-2 RdRp (Severe acute respiratory syndrome coronavirus 2, UniProt P0DTD1); test: biochemical; type: biochemical; conditions: for Inhibition of SARS-CoV-2 RdRp at one concentration: in vitro RdRp assay, 100 µM
[2] = system: SARS-CoV-2; test: microbe, parasite or virus in culture; type: cell-based; conditions: for Inhibition of SARS-CoV-2 replication at single concentration: 50 µM, initial screening; for Inhibition of SARS-CoV-2 replication at single concentration / EC50: Vero cells; for SI: CC50/EC50, Vero cells, SARS-CoV-2; for EC50: Severe acute respiratory syndrome coronavirus 2, MOI 0.1, 48 h, 50% reduction in viral titers, read-out: EC50 (µM) (95% CI)
[3] = system: SARS-CoV-2; test: microbe, parasite or virus in culture; type: cell-based; conditions: for SI: CC50/EC50, CaCo-2 cells, SARS-CoV-2; for EC50: Severe acute respiratory syndrome coronavirus 2, CaCo-2 cells, MOI 0.1, 48 h, 50% reduction in viral titers, read-out: EC50 (µM) (95% CI)
[4] = system: FIPV; test: Viral titer reduction assay, FIPV in CRFK cells (plaque assay readout); type: cell-based, feline infectious peritonitis virus; conditions: for Inhibition of FIPV replication at single concentration: 50 µM, initial screening; for Inhibition of FIPV replication at single concentration / EC50 / Anti-FIPV activity lower compared with remdesivir: CRFK cells; for SI: CC50/EC50, CRFK cells; for SI / EC50: FIPV; for EC50: MOI 0.1, 48 h, 50% reduction in viral titers, read-out: EC50 (µM) (95% CI); for Anti-FIPV activity lower compared with remdesivir: relative to remdesivir EC50
[5] = in vitro; conditions: African green monkey
[6] = in vitro; conditions: human
[7] = in vitro; conditions: cat (Felis catus)
[8] = system: Vero cells; conditions: 50 µM
[9] = system: CaCo-2 cells; conditions: 50 µM
[10] = Cytotoxicity (Cell Counting Kit-8, WST-8) in Vero cells; conditions: African green monkey
[11] = Cytotoxicity (Cell Counting Kit-8, WST-8) in CRFK cells; conditions: cat (Felis catus)
[12] = Cytotoxicity (Cell Counting Kit-8, WST-8) in CaCo-2 cells; conditions: human
[13] = radioactive primer extension assay, n = 3, ± standard error of the mean, read-out: IC50

SMILES | Inhibition of SARS-CoV-2 RdRp at one concentration [1] | IC50 [1, 13] [µM] | Inhibition of SARS-CoV-2 replication at single concentration [2] | SI [2] | EC50 [2] [µM] | SI [3] | EC50 [3] [µM] | Inhibition of FIPV replication at single concentration [4] | SI [4] | CC50 at 48 h [5] [µM] | CC50 at 48 h [6] [µM] | CC50 at 48 h [7] [µM] | EC50 [4] [µM] | Anti-FIPV activity lower compared with remdesivir [4] | further results
O=C(N[C@@H](Cc1ccc(O)cc1)C(=O)O)c1ccc(=O)n2c1sc1ccc(OC3CCCCC3)cc12 [Compound 18] | inhibit | 85.5 ± 2 | inactive | >1 | > 50 | >2 | > 25 | inactive | >1 | > 50 | > 50 | > 50 |  |  | 
O=C(N[C@@H](Cc1ccccc1)C(=O)O)c1cc(-c2ccccc2)c(=O)n2c1sc1ccc(OC3CCCCC3)cc12 [Compound 17] | inhibit | 41.2 ± 1.7 | completely inhibit | >94.8 | 0.527 | >50.2 | 0.996 | completely inhibit |  | > 50 | > 50 | > 50 | 0.999 | approx. 5 fold | Cell viability [8]: approx. 125 % of untreated cells; Cell viability [9]: approx. 125 % of untreated cells; viability at 48 h, 50 µM [7]: ~60%
O=C(N[C@@H](Cc1ccc(O)cc1)C(=O)O)c1cc(-c2ccccc2)c(=O)n2c1sc1ccc(OC3CCCCC3)cc12 [Compound 16, reference compound] | inhibit |  | completely inhibit | >76.5 | 0.653 | >52.7 | 0.949 | completely inhibit | >47.1 | > 50 | > 50 | > 50 | 1.06 | approx. 5 fold | IC50 [1]: 27.6 ± 2.1 µM; SI ([2]; listed as HeE1-2Tyr (16)): > 70; SI ([3]; listed as HeE1-2Tyr (16)): > 50; SI ([4]; listed as HeE1-2Tyr (16)): exceeding 40
CCC(CC)COC(=O)[C@H](C)N[P@](=O)(OC[C@H]1O[C@@](C#N)(c2ccc3c(N)ncnn23)[C@H](O)[C@@H]1O)Oc1ccccc1 [Remdesivir] |  |  |  | >55.5 | 0.901 |  | < 0.3 |  | >224.2 |  |  |  |  |  | CC50 at 48 h [10]: > 50 µM; CC50 at 48 h [11]: > 50 µM; CC50 at 48 h [12]: > 50 µM

From article PMC8402726 (Viruses, 2021)
